Usually IC50 stands for the concentration needed to halve the response being measured.

Here are results for 1 compound from patent US7365225B2, “Aryl dicarboxamides” (Laboratoires Serono SA, priority 2003, dated 2008).

Common to all, as to type: biochemical
Experiment [1] concerns the target T1, GLEPP-1 (Homo sapiens, UniProt Q16827).
T1 construct: using the catalytic core of a human recombinant PTP as the enzyme; made in house
T1 sequence (Q16827 938-1195 limits assumed): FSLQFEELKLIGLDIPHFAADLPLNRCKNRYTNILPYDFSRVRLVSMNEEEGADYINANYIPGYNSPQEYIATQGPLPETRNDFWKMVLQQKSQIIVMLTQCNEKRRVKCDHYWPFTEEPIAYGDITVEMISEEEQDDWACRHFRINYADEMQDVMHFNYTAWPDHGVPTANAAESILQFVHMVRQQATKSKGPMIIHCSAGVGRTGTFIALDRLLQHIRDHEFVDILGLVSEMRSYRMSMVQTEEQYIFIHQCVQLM
As to the kind of experiment: PTP Enzyme Assay (DiFMUP), GLEPP-1. Particulars: catalytic core of human recombinant PTP; 30 μM DiFMUP; 30 minutes at room temperature; read-out: IC50 value in respect of GLEPP-1. The method, then:
(§1) The PTP Enzyme Assay aims at determining the extent of inhibition of PTPs, e.g. of PTP1B, SHP-1, SHP-2, or GLEPP-1 in the presence of a test compound of formula (I). The inhibition is illustrated by IC50 values which denote the concentration of test compound necessary to achieve an inhibition of 50% of said PTP's using the following concentration of the PTP substrate DiFMUP: • 5 μM DiFMUP for PTP1B; • 20 μM DiFMUP for SHP-1 and SHP-2; • 30 μM DiFMUP for GLEPP-1. a) PTPs Cloning […]
(§2) Assays were performed in a 96 well plate format, using the catalytic core of a human recombinant PTP as the enzyme and 6,8-DiFluoro-4-MethylUmbelliferyl Phosphate (DiFMUP, Molecular Probes, D-6567) as a substrate. […] The reaction ran for 30 minutes at room temperature before reading the fluorescence intensity (integral or intensity) on a Perkin-Elmer Victor 2 spectrofluorimeter (excitation of 6,8-difluoro-7-hydroxy coumarin is at 355 nm, the emission at 460 nm, for 0.1 s). The percentage of inhibition is determined by measuring the relative fluorescence ion absence of a test compound (PTP inhibitor), i.e. with the solvent alone (5% DMSO). The IC50 values for inhibition were determined in triplicates.

Experiment [2] has as its target T2, SHP-2 (Homo sapiens, UniProt Q06124).
T2 construct: using the catalytic core of a human recombinant PTP as the enzyme; made in house
T2 sequence (Q06124 247-517 limits assumed): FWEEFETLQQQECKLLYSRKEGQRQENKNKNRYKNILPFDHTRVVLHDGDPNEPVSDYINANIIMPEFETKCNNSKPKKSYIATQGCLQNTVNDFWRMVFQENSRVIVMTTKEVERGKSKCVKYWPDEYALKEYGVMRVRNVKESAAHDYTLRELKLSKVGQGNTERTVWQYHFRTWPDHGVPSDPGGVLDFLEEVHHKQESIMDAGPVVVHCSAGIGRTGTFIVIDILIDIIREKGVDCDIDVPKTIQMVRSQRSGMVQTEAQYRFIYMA
As to the kind of experiment: PTP Enzyme Assay (DiFMUP), SHP-2. As to conditions: catalytic core of human recombinant PTP; 20 μM DiFMUP; 30 minutes at room temperature; read-out: IC50 value in respect of SHP-2. The method, then: as §1, §2

Experiment [3] has as its target T3, PTP1B (Homo sapiens, UniProt P18031).
T3 construct: using the catalytic core of a human recombinant PTP as the enzyme; made in house
T3 sequence (P18031 3-277 limits assumed): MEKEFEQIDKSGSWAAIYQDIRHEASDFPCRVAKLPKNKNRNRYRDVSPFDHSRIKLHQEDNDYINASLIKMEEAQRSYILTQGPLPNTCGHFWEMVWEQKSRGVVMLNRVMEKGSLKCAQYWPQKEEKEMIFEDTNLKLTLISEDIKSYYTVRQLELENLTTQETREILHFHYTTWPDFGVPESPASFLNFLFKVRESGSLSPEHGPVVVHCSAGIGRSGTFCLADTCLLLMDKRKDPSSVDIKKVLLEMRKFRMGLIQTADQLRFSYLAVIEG
As to the kind of experiment: PTP Enzyme Assay (DiFMUP), PTP1B. Particulars: catalytic core of human recombinant PTP; 5 μM DiFMUP; 30 minutes at room temperature; read-out: IC50 value in respect of PTP1B. The procedure: The PTP Enzyme Assay aims at determining the extent of inhibition of PTPs, e.g. of PTP1B, SHP-1, SHP-2, or GLEPP-1 in the presence of a test compound of formula (I). The inhibition is illustrated by IC50 values which denote the concentration of test compound necessary to achieve an inhibition of 50% of said PTP's using the following concentration of the PTP substrate DiFMUP: • 5 μM DiFMUP for PTP1B; • 20 μM DiFMUP for SHP-1 and SHP-2; • 30 μM DiFMUP for GLEPP-1. a) PTPs Cloning
The cloning and expression of the catalytic domain e.g. of PTP1B, may be performed as described in J. Biol. Chem. 2000, 275(13), pp 9792-9796. […]
as §2

The target in experiment [4] is T4, SHP-1 (Homo sapiens, UniProt P29350).
T4 construct: using the catalytic core of a human recombinant PTP as the enzyme; made in house
T4 sequence (P29350 244-515 limits assumed): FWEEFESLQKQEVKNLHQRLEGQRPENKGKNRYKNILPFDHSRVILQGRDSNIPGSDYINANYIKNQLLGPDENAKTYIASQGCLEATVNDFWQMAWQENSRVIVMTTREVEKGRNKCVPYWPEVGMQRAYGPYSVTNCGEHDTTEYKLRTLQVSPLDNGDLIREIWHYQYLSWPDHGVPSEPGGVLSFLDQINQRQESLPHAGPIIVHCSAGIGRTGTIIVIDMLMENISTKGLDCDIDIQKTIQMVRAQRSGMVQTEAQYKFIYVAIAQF
As to the kind of experiment: PTP Enzyme Assay (DiFMUP), SHP-1. Particulars: catalytic core of human recombinant PTP; 20 μM DiFMUP; 30 minutes at room temperature; read-out: IC50 value in respect of SHP-1. The method, then: as §1, §2

With `O=C(NCc1ccc(Oc2ccccc2)cc1)c1ccc(CN(C(=O)CCC2CCCC2)c2ccc(O)c(C(=O)O)c2)cc1` [Example 1, 5-[(3-cyclopentylpropanoyl)(4-{[(4-phenoxybenzyl)amino]carbonyl}benzyl)amino]-2-hydroxybenzoic acid], the IC50 in experiment [1] worked out at 1200 nM; in experiment [2], 1900 nM; in experiment [3] it was 1000 nM; in experiment [4] it was 4000 nM.
